Measurements as given in US8765722B2 (priority 2009, dated 2014).

System: human hepatoma Huh-7 cell line harboring a HCV replicon
Assay: microbe, parasite or virus in culture
Type: cell-based
Conditions: for EC50 / inhibition at 2 µM: Hepatitis C virus; for EC50: Huh-7; for inhibition at 2 µM: Huh-7, 72 h, read-out: % inhibition at 2 μM

Row | Compound | % inhibition at 2 μM [%] | EC50 [nM] | inhibition at 2 µM [%]
1 | 5-(3,3-Dimethyl-but-1-ynyl)-3-[[trans-4-(dimethyl-phosphinoyloxy)-cyclobutyl]-cis-4-methyl-cyclohexanecarbonyl)-amino]-thiophene-2-carboxylic acid [Compound 17] | 99.5 | – | –
2 | CC(C)(C)C#Cc1cc(N(C(=O)[C@H]2CC[C@H](C)CC2)[C@H]2CC[C@H](OP(C)(C)=O)CC2)c(C(=O)O)s1 [Compound 1, 5-(3,3-Dimethyl-but-1-ynyl)-3-[[trans-4-(dimethyl-phosphinoyloxy)-cyclohexyl]-(trans-4-methyl-cyclohexanecarbonyl)-amino]-thiophene-2-carboxylic acid] | – | ≤ 500 | 99.8
3 | CCP(=O)(CC)O[C@H]1CC[C@H](N(c2cc(C#CC(C)(C)C)sc2C(=O)O)C(=O)[C@H]2CC[C@H](C)CC2)CC1 [Compound 2, 3-[[trans-4-(Diethyl-phosphinoyloxy)-cyclohexyl]-(trans-4-methyl-cyclohexanecarbonyl)-amino]-5-(3,3-dimethyl-but-1-ynyl)-thiophene-2-carboxylic acid] | – | ≤ 500 | 99.8
4 | CC(C)(C)C#Cc1cc(N(C(=O)[C@H]2CC[C@H](C)CC2)[C@H]2CC[C@H](OP(C)(=O)c3ccccc3)CC2)c(C(=O)O)s1 (stereo partly drawn) [Compound 3, 5-(3,3-Dimethyl-but-1-ynyl)-3-{(trans-4-methyl-cyclohexanecarbonyl)-[trans-4-(methyl-phenyl-phosphinoyloxy)-cyclohexyl]-amino}-thiophene-2-carboxylic acid] | – | ≤ 500 | 99.6
5 | CC(C)(C)C#Cc1cc(N(C(=O)[C@H]2CC[C@H](C)CC2)[C@H]2CC[C@H](OP(=O)(c3ccccc3)c3ccccc3)CC2)c(C(=O)O)s1 [Compound 4, 5-(3,3-Dimethyl-but-1-ynyl)-3-[[trans-4-(diphenyl-phosphinoyloxy)-cyclohexyl]-(trans-4-methyl-cyclohexanecarbonyl)-amino]-thiophene-2-carboxylic acid] | – | – | 94.7
6 | CC(C)(C)C#Cc1cc(N(C(=O)[C@H]2CC[C@H](C)CC2)[C@H]2CC[C@@H](OP(C)(C)=O)CC2)c(C(=O)O)s1 [Compound 5, 5-(3,3-Dimethyl-but-1-ynyl)-3-[[cis-4-(dimethyl-phosphinoyloxy)-cyclohexyl]-(trans-4-methyl-cyclohexanecarbonyl)-amino]-thiophene-2-carboxylic acid] | – | ≤ 500 | 100
7 | CC(C)(C)C#Cc1cc(N(C(=O)[C@H]2CC[C@H](C(F)(F)F)CC2)[C@H]2CC[C@H](OP(C)(C)=O)CC2)c(C(=O)O)s1 [Compound 6, 5-(3,3-Dimethyl-but-1-ynyl)-3-[[trans-4-(dimethyl-phosphinoyloxy)-cyclohexyl]-(trans-4-trifluoromethyl-cyclohexanecarbonyl)-amino]-thiophene-2-carboxylic acid] | – | – | 93.2
8 | CP(C)(=O)O[C@H]1CC[C@H](N(c2cc(-c3ccc(NC(=O)c4cscn4)cc3)sc2C(=O)O)C(=O)[C@H]2CC[C@H](C)CC2)CC1 [Compound 7, 3-[[trans-4-(Dimethyl-phosphinoyloxy)-cyclohexyl]-(trans-4-methyl-cyclohexanecarbonyl)-amino]-5-{4-[(thiazole-4-carbonyl)-amino]-phenyl}-thiophene-2-carboxylic acid] | – | ≤ 500 | 99.8
9 | CP(C)(=O)O[C@H]1CC[C@H](N(c2cc(-c3ccc(-c4cc5ncccn5n4)cc3)sc2C(=O)O)C(=O)[C@H]2CC[C@H](C)CC2)CC1 [Compound 8] | – | ≤ 500 | 99.8
10 | COP1(=O)CCC(NC2CCC(N(c3cc(C#CC(C)(C)C)sc3C(=O)O)C(=O)[C@H]3CC[C@H](C)CC3)CC2)CC1 (stereo partly drawn) [Compound 9, 5-(3,3-Dimethyl-but-1-ynyl)-3-[[4-(1-methoxy-1-oxo-1λ^5-phosphinan-4-ylamino)-cyclohexyl]-(trans-4-methyl-cyclohexanecarbonyl)-amino]-thiophene-2-carboxylic acid] | – | ≤ 500 | 99.9
11 | COP1(=O)CCC(N(c2cc(C#CC(C)(C)C)sc2C(=O)O)C(=O)[C@H]2CC[C@H](C)CC2)CC1 (stereo partly drawn) [Compound 11, 5-(3,3-Dimethyl-but-1-ynyl)-3-[(1-methoxy-1-oxo-1 λ^5phosphinan-4-yl)-(trans-4-methyl-cyclohexanecarbonyl)-amino]-thiophene-2-carboxylic acid] | – | ≤ 500 | 99.8
12 | CC(C)(C)C#Cc1cc(N(C(=O)[C@H]2CC[C@H](C)CC2)C2CCP(=O)(O)CC2)c(C(=O)O)s1 (stereo partly drawn) [Compound 12, 5-(3,3-Dimethyl-but-1-ynyl)-3[(1-hydroxy-1-oxo-1 λ^5phosphinan-4-yl)-(trans-4-methyl-cyclohexanecarbonyl)-amino]-thiophene-2-carboxylic acid] | – | – | 98.2
13 | CCOP(C)(=O)C1(O)CCC(N(c2cc(C#CC(C)(C)C)sc2C(=O)O)C(=O)[C@H]2CC[C@H](C)CC2)CC1 (stereo partly drawn) [Compound 13, 5-(3,3-dimethylbut-1-ynyl)-3-((1r,4r)-N-(4-ethoxy(methyl)phosphoryl)-4-hydroxycyclohexyl)-(trans-4-methylcyclohexanecarboxamido)thiophene-2-carboxylic acid] | – | ≤ 500 | 99.8
14 | CCOP(C)(=O)C1(OC)CCC(N(c2cc(C#CC(C)(C)C)sc2C(=O)O)C(=O)[C@H]2CC[C@H](C)CC2)CC1 (stereo partly shown) [Compound 14] | – | ≤ 500 | 99.8
15 | CC(C)(C)C#Cc1cc(N(CCOP(C)(C)=O)C(=O)[C@H]2CC[C@H](C)CC2)c(C(=O)O)s1 [Compound 15, 5-(3,3-Dimethyl-but-1-ynyl)-3-[[2-(dimethyl-phosphinoyloxy)-ethyl]-(trans-4-methyl-cyclohexanecarbonyl)-amino]-thiophene-2-carboxylic acid] | – | ≤ 500 | 98.9
16 | CCP(=O)(CC)OCCN(c1cc(C#CC(C)(C)C)sc1C(=O)O)C(=O)[C@H]1CC[C@H](C)CC1 [Compound 16, 3-[[2-(Diethyl-phosphinoyloxy)-ethyl]-(trans-4-methyl-cyclohexanecarbonyl)-amino]-5-(3,3-dimethyl-but-1-ynyl)-thiophene-2-carboxylic acid] | – | ≤ 500 | 99.5
17 | CCOP(C)(=O)CCN(c1cc(C#CC(C)(C)C)sc1C(=O)O)C(=O)[C@H]1CC[C@H](C)CC1 (stereo partly shown) [Compound 18, 5-(3,3-Dimethyl-but-1-ynyl)-3-[[2-(ethoxy-methyl-phosphinoyl)-ethyl]-(4-methyl-cyclohexanecarbonyl)-amino]thiophene-2-carboxy-lic acid] | – | ≤ 500 | 98.8
18 | CC(C)(C)C#Cc1cc(N(CCP(C)(=O)O)C(=O)[C@H]2CC[C@H](C)CC2)c(C(=O)O)s1 [Compound 19, 5-(3,3-dimethyl-but-1-ynyl)-3-[[2-(hydroxy-methyl-phosphinoyl)-ethyl]-(4-methyl-cyclohexanecarbonyl)-amino]-thiophene-2-carboxylic acid] | – | ≤ 500 | 94.2
19 | CCOP(C)(=O)Cc1ccc(-c2cc(N(C(=O)[C@H]3CC[C@H](C)CC3)C3CCC4(CC3)OCCO4)c(C(=O)O)s2)cc1 (stereo partly shown) [Compound 20, 3-[(1,4-Dioxa-spiro[4.5]dec-8-yl)-(4-methyl-cyclohexanecarbonyl)-amino]-5-[4-(ethoxy-methyl-phosphinoylmethyl)-phenyl]-thiophene-2-carboxylic acid] | – | – | 56.3
20 | CCOP(C)(=O)Cc1ccc(-c2cc(N(C(=O)[C@H]3CC[C@H](C)CC3)[C@H]3CC[C@H](O)CC3)c(C(=O)O)s2)cc1 (stereo partly shown) [Compound 21] | – | – | 79.2
21 | CP(=O)(O)Cc1ccc(-c2cc(N(C(=O)[C@H]3CC[C@H](C)CC3)[C@H]3CC[C@H](O)CC3)c(C(=O)O)s2)cc1 [Compound 22] | – | – | 12.3
22 | CC(C)(C#Cc1cc(N(C(=O)[C@H]2CC[C@H](C)CC2)[C@H]2CC[C@H](O)CC2)c(C(=O)O)s1)CCOP(C)(C)=O [Compound 23] | – | ≤ 500 | –
23 | CCOP(=O)(CCNC1CCC(N(c2cc(C#CC(C)(C)C)sc2C(=O)O)C(=O)[C@H]2CC[C@H](C)CC2)CC1)OCC (stereo partly shown) [Compound 24, 3-(1,4-N-(4-(2-(diethoxyphosphoryl)ethylamino)cyclohexyl)-4-methylcyclohexanecarboxamido)-5-(3,3-dimethylbut-1-ynyl)thiophene-2-carboxylic acid] | – | ≤ 500 | –
